From patent US8192962B2, “Processes for detecting toxic substances” (Daikin Industries, Ltd., priority 2001, dated 2012)

System: Genes belonging to other category
Test: DNA chip mRNA expression in yeast, genes belonging to other category (Table 9)
Format: cell-based, Saccharomyces cerevisiae S288C
How it was run: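 First, S288C yeast grown in YPD at 25° C. are dosed in log phase with one toxicant (growth-inhibiting, not lethal) for 2 h. Next, total RNA is extracted and poly(A) mRNA isolated and reverse-transcribed with Cy3/Cy5-dUTP. Finally, whole-genome chip fluorescence is read relative to unexposed cells.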

SMILES: CCCCCCCCCCCCOS(=O)(=O)[O-].[Na+] [(18), sodium lauryl sulfate]
- The level of expressed mRNA in the presence of chemical substance/The level of expressed mRNA in the absence of chemical substance (yeast gene YDR392W): 1.2
- The level of expressed mRNA in the presence of chemical substance/The level of expressed mRNA in the absence of chemical substance (yeast gene YDR403W): 1.0
- The level of expressed mRNA in the presence of chemical substance/The level of expressed mRNA in the absence of chemical substance (yeast gene YDR432W): 0.7
- The level of expressed mRNA in the presence of chemical substance/The level of expressed mRNA in the absence of chemical substance (yeast gene YDR481C): 1.4
- The level of expressed mRNA in the presence of chemical substance/The level of expressed mRNA in the absence of chemical substance (yeast gene YDR510W): 1.5
- The level of expressed mRNA in the presence of chemical substance/The level of expressed mRNA in the absence of chemical substance (yeast gene YEL042W): 0.8
- The level of expressed mRNA in the presence of chemical substance/The level of expressed mRNA in the absence of chemical substance (yeast gene YEL066W): 1.1
- The level of expressed mRNA in the presence of chemical substance/The level of expressed mRNA in the absence of chemical substance (yeast gene YER039C): 1.1
- The level of expressed mRNA in the presence of chemical substance/The level of expressed mRNA in the absence of chemical substance (yeast gene YER066W): 1.1
- The level of expressed mRNA in the presence of chemical substance/The level of expressed mRNA in the absence of chemical substance (yeast gene YER107C): 1.2
- The level of expressed mRNA in the presence of chemical substance/The level of expressed mRNA in the absence of chemical substance (yeast gene YER130C): 2.5
- The level of expressed mRNA in the presence of chemical substance/The level of expressed mRNA in the absence of chemical substance (yeast gene YFL022C): 0.8
- The level of expressed mRNA in the presence of chemical substance/The level of expressed mRNA in the absence of chemical substance (yeast gene YFL028C): 1.5
- The level of expressed mRNA in the presence of chemical substance/The level of expressed mRNA in the absence of chemical substance (yeast gene YFL029C): 1.4
- The level of expressed mRNA in the presence of chemical substance/The level of expressed mRNA in the absence of chemical substance (yeast gene YFL043C): 1.2
- The level of expressed mRNA in the presence of chemical substance/The level of expressed mRNA in the absence of chemical substance (yeast gene YFR004W): 1.4
- The level of expressed mRNA in the presence of chemical substance/The level of expressed mRNA in the absence of chemical substance (yeast gene YFR014C): 2.9
- The level of expressed mRNA in the presence of chemical substance/The level of expressed mRNA in the absence of chemical substance (yeast gene YFR050C): 1.7
- The level of expressed mRNA in the presence of chemical substance/The level of expressed mRNA in the absence of chemical substance (yeast gene YGL093W): 1.2
- The level of expressed mRNA in the presence of chemical substance/The level of expressed mRNA in the absence of chemical substance (yeast gene YGL094C): 0.9
- The level of expressed mRNA in the presence of chemical substance/The level of expressed mRNA in the absence of chemical substance (yeast gene YGL141W): 1.2
- The level of expressed mRNA in the presence of chemical substance/The level of expressed mRNA in the absence of chemical substance (yeast gene YGL150C): 0.8
- The level of expressed mRNA in the presence of chemical substance/The level of expressed mRNA in the absence of chemical substance (yeast gene YGL158W): 1.1
- The level of expressed mRNA in the presence of chemical substance/The level of expressed mRNA in the absence of chemical substance (yeast gene YGL166W): 1.9
- The level of expressed mRNA in the presence of chemical substance/The level of expressed mRNA in the absence of chemical substance (yeast gene YGL207W): 0.8
- The level of expressed mRNA in the presence of chemical substance/The level of expressed mRNA in the absence of chemical substance (yeast gene YGL229C): 0.9
- The level of expressed mRNA in the presence of chemical substance/The level of expressed mRNA in the absence of chemical substance (yeast gene YGR036C): 1.1
- The level of expressed mRNA in the presence of chemical substance/The level of expressed mRNA in the absence of chemical substance (yeast gene YGR048W): 1.2
- The level of expressed mRNA in the presence of chemical substance/The level of expressed mRNA in the absence of chemical substance (yeast gene YGR135W): 1.9
- The level of expressed mRNA in the presence of chemical substance/The level of expressed mRNA in the absence of chemical substance (yeast gene YGR136W): 1.8
- The level of expressed mRNA in the presence of chemical substance/The level of expressed mRNA in the absence of chemical substance (yeast gene YGR186W): 1.2
- The level of expressed mRNA in the presence of chemical substance/The level of expressed mRNA in the absence of chemical substance (yeast gene YGR189C): 1.7
- The level of expressed mRNA in the presence of chemical substance/The level of expressed mRNA in the absence of chemical substance (yeast gene YGR213C): 8.5
- The level of expressed mRNA in the presence of chemical substance/The level of expressed mRNA in the absence of chemical substance (yeast gene YGR232W): 1.2
- The level of expressed mRNA in the presence of chemical substance/The level of expressed mRNA in the absence of chemical substance (yeast gene YGR257C): 1.3
- The level of expressed mRNA in the presence of chemical substance/The level of expressed mRNA in the absence of chemical substance (yeast gene YHL024W): 1.4
- The level of expressed mRNA in the presence of chemical substance/The level of expressed mRNA in the absence of chemical substance (yeast gene YHR004C): 1.6
- The level of expressed mRNA in the presence of chemical substance/The level of expressed mRNA in the absence of chemical substance (yeast gene YHR027C): 1.0
- The level of expressed mRNA in the presence of chemical substance/The level of expressed mRNA in the absence of chemical substance (yeast gene YHR071W): 1.0
- The level of expressed mRNA in the presence of chemical substance/The level of expressed mRNA in the absence of chemical substance (yeast gene YHR139C): 1.3
- The level of expressed mRNA in the presence of chemical substance/The level of expressed mRNA in the absence of chemical substance (yeast gene YHR142W): 1.3
- The level of expressed mRNA in the presence of chemical substance/The level of expressed mRNA in the absence of chemical substance (yeast gene YHR163W): 1.2
- The level of expressed mRNA in the presence of chemical substance/The level of expressed mRNA in the absence of chemical substance (yeast gene YIL050W): 1.1
- The level of expressed mRNA in the presence of chemical substance/The level of expressed mRNA in the absence of chemical substance (yeast gene YIL076W): 2.5
- The level of expressed mRNA in the presence of chemical substance/The level of expressed mRNA in the absence of chemical substance (yeast gene YIL123W): 1.0
- The level of expressed mRNA in the presence of chemical substance/The level of expressed mRNA in the absence of chemical substance (yeast gene YIL140W): 1.0
- The level of expressed mRNA in the presence of chemical substance/The level of expressed mRNA in the absence of chemical substance (yeast gene YIL142W): 0.8
- The level of expressed mRNA in the presence of chemical substance/The level of expressed mRNA in the absence of chemical substance (yeast gene YIR039C): 1.1
